Data taken from EP3807270B1, “NOVEL HETEROARYL HETEROCYCLYL COMPOUNDS FOR THE TREATMENT OF AUTOIMMUNE DISEASE” (F. Hoffmann-La Roche AG, priority 2018, dated 2019).

Key:
[1] = biological target: T1, hTLR9 (Homo sapiens, UniProt Q9NR96); assay: HEK293-Blue-hTLR-9 cells assay (SEAP reporter, ODN2006 stimulation); assay type: cell-based; parameters: host or cells: HEK293 (HEK-Blue); conditions: HEK293-Blue-hTLR9 cells, ODN2006, 20 hrs; read-out: HEK/hTLR9 IC50
T1 sequence (Q9NR96 26-1032): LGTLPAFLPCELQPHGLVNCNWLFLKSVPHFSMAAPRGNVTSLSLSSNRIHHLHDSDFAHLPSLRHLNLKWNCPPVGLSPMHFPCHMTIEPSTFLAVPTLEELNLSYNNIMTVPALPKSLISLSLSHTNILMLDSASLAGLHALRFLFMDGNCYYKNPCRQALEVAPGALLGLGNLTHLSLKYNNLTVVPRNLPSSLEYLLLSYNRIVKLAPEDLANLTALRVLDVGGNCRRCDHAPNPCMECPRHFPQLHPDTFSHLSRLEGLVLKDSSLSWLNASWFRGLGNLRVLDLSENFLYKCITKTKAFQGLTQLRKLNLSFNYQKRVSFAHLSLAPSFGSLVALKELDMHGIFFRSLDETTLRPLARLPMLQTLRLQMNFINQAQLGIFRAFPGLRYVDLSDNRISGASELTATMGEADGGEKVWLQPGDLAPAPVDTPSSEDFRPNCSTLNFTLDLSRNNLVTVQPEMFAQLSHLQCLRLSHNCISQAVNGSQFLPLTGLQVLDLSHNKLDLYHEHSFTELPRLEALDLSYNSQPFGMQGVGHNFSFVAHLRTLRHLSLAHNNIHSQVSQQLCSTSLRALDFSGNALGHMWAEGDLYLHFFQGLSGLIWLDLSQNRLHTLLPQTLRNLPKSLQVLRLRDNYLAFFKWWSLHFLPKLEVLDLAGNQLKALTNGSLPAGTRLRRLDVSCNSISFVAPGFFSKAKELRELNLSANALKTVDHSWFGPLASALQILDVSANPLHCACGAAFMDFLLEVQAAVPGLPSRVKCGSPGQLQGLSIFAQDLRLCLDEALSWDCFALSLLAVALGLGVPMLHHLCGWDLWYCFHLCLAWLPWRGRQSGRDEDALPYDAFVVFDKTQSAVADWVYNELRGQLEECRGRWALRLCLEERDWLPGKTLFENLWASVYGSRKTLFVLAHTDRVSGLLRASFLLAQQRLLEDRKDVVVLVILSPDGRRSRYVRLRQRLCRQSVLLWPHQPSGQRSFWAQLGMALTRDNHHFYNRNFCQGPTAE
From the text: A stable HEK293-Blue-hTLR-9 cell line was purchased from InvivoGen (Cat.#: hkb-htlr9, San Diego, California, USA). These cells were originally designed for studying the stimulation of human TLR9 by monitoring the activation of NF-κB. A SEAP (secreted embryonic alkaline phosphatase) reporter gene was placed under the control of the IFN-β minimal promoter fused to five NF-κB and AP-1-binding sites. The SEAP was induced by activating NF-κB and AP-1 via stimulating HEK-Blue hTLR9 cells with TLR9 ligands. Therefore, the reporter expression was declined by TLR9 antagonist under the stimulation of a ligand, such as ODN2006 (Cat.#: tlrl-2006-1, Invivogen, San Diego, California, USA), for incubation of 20 hrs. The cell culture supernatant SEAP reporter activity was determined using QUANTI-Blue™ kit (Cat.#: rep-qb 1, Invivogen, San Diego, California, USA) at a wavelength of 640 nm, a detection medium that turns purple or blue in the presence of alkaline phosphatase.
HEK293-Blue-hTLR9 cells were incubated at a density of 250,000-450,000 cells/mL in a volume of 170 µL in a 96-well plate in Dulbecco's Modified Eagle's medium (DMEM) containing 4.5 g/L glucose, 50 U/mL penicillin, […], […], 2 mM L-glutamine, 10% (v/v) heat-inactivated fetal bovine serum with addition of 20 µL test compound in a serial dilution in the presence of final DMSO at 1% and 10 µL of 20uM ODN2006 in above DMEM, perform incubation under 37 °C in a CO2 incubator for 20 hrs. Then 20 µL of the supernatant from each well was incubated with 180 µL Quanti-blue substrate solution at 37 °C for 2 hrs and the absorbance was read at 620-655 nm using a spectrophotometer. The signaling pathway that TLR9 activation leads to downstream NF-κB activation has been widely accepted, and therefore similar reporter assay was modified for evaluating TLR9 antagonist.

[2] = biological target: T2, CYP2D6 (Homo sapiens, UniProt P10635); assay: CYP inhibition assay in human liver microsome; assay type: in vitro ADME; conditions: human liver microsomes, probe dextromethorphan, 10µM test compound, dextromethorphan substrate, <0: not or weak inhibitor, read-out: CYP 2D6 inhibition %@10µM
T2 construct: tissue BD-Gentest 452117; host or cells: human liver microsomes
T2 sequence (P10635 whole entry): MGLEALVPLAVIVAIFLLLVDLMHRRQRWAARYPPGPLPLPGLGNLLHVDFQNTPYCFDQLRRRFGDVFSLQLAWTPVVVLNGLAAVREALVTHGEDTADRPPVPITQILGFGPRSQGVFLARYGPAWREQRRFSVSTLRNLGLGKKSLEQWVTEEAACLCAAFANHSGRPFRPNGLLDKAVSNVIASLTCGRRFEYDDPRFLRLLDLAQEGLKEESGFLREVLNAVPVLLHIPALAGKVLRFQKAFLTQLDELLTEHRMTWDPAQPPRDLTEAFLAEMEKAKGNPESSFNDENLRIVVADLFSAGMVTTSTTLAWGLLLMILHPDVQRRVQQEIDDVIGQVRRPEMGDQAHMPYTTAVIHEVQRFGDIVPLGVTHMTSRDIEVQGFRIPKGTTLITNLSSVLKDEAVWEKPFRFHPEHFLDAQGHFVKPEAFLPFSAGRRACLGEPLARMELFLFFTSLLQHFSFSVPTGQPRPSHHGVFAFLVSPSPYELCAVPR
Method: This is a high throughput screening assay used for assessment of reversible inhibition of CYP2D6 activity of test compounds in human liver microsome (HLM) in early discovery stage. Table 4. Chemicals and materials used in the CYP inhibition assay
10 mM DMSO stock solutions of test compounds were diluted in DMSO to generate 2 mM intermediate stock solution. 250 nL of intermediate stock solution were transferred in duplicate into 3 separate 384 well microtitre plates (assay-ready plates). A mixture of HLM and each substrate was made up. 45 µL of HLM substrate mix was then transferred to each well of an assay ready plate and mixed. The negative (solvent) and positive control (standard inhibitor for CYP 2D6) were included in each assay ready plate. The assay ready plate was warmed to 37 °C in an incubator over 10 minutes. 5 µL pre-warmed NADPH regenerating system was added to each incubation well to start the reaction. Final incubation volume was 50 µL. The assay plate then was placed back in the 37 °C incubator. After 10-minute incubation, incubates were quenched by addition of 50 µL 100% acetonitrile containing internal standards (20 ng/mL D3-Dextrorphan). The supernatants were collected for RapidFire/MS/MS analysis.
RapidFire online solid phase extraction/sample injection system (Agilent) coupled with API4000 triple quadrupole mass spectrometer (AB Sciex) were used for sample analysis. The mobile phase composed of acetonitrile and water supplemented with 0.1% formic acid. A C4 solid phase extraction cartridge is used for sample separation. MS detection is achieved in positive ion MRM mode.
Peak areas for substrate, metabolite and internal standard are determined using the RapidFire integrator software (version 3.6.12009.12296). Peak area ratios (PAR) of metabolite and internal standard (stable-labelled metabolite) are then calculated. The measurement window for each experiment is then defined: • PAR (0% activity)= average PAR for all incubations containing concentrated inhibitor; • Par (100% activity)= average PAR for all incubations containing no inhibitor (DMSO controls); • % Activity (test inhibitor) • =[PAR(test inhibitor)-PAR(0% activity)]/[PAR(100% activity)-PAR(0% activity)]; • % Inhibition (test inhibitor)=100-% Activity (test inhibitor).

C[C@@H]1CN(c2ccc(C#N)c3ncccc23)C[C@H](CN2CCN(c3ncc4c(n3)CNC4)CC2)O1 [Example 11, 5-[(2S,6R)-2-[[4-(6,7-dihydro-5Hpyrrolo[3,4-d]pyrimidin-2-yl)piperazin-1-yl]methyl]-6-methyl-morpholin-4-yl]quinoline-8-carbonitrile]
IC50 [1]: 0.252 µM | inhibition at 10 min, 10 µM [2]: 19%

C[C@@H]1CN(c2ccc(C#N)c3ncccc23)C[C@H](CN2CCN(c3ccc4c(n3)CCNC4)CC2)O1 [Example 14, 5-[(2R,6S)-2-methyl-6-[[4-(5,6,7,8-tetrahydro-1,6-naphthyridin-2-yl)piperazin-1-yl]methyl]morpholin-4-yl]quinoline-8-carbonitrile]
IC50 [1]: 0.058 µM | inhibition at 10 min, 10 µM [2]: -6%

C[C@@H]1CN(c2ccc(C#N)c3ncccc23)C[C@H](CN2CCN(c3ccc4c(c3)CN(CCO)C4)CC2)O1 [Example 16, 5-[(2S,6R)-2-[[4-[2-(2-hydroxyethyl)isoindolin-5-yl]piperazin-1-yl]methyl]-6-methyl-morpholin-4-yl]quinoline-8-carbonitrile]
IC50 [1]: 0.091 µM | inhibition at 10 min, 10 µM [2]: 2.5%

C[C@@H]1CN(c2ccc(C#N)c3ncccc23)C[C@H](CN2CCN(c3cnc4c(n3)CCNC4)CC2)O1 [Example 17, 5-[(2R,6S)-2-methyl-6-[[4-(5,6,7,8-tetrahydropyrido[3,4-b]pyrazin-2-yl)piperazin-1-yl]methyl]morpholin-4-yl]quinoline-8-carbonitrile]
IC50 [1]: 0.098 µM | inhibition at 10 min, 10 µM [2]: 4.5%

C[C@@H]1CN(c2ccc(C#N)c3ncccc23)C[C@H](CN2CCN(c3cc4c(cn3)CNC4)CC2)O1 [Example 18, 5-[(2S,6R)-2-[[4-(2,3-dihydro-1H-pyrrolo[3,4-c]pyridin-6-yl)piperazin-1-yl]methyl]-6-methyl-morpholin-4-yl] quinoline-8-carbonitrile]
IC50 [1]: 0.098 µM | inhibition at 10 min, 10 µM [2]: 13%

C[C@@H]1CN(c2ccc(C#N)c3ncccc23)C[C@H](CN2CCN(c3cc4c(cn3)CNCC4)CC2)O1 [Example 19, 5-[(2R,6S)-2-methyl-6-[[4-(5,6,7,8-tetrahydro-2,7-naphthyridin-3-yl)piperazin-1-yl]methyl]morpholin-4-yl]quinoline-8-carbonitrile]
IC50 [1]: 0.063 µM | inhibition at 10 min, 10 µM [2]: 7.5%

C[C@@H]1CN(c2ccc(C#N)c3ncccc23)C[C@H](CN2CCN(c3cc4c(cn3)CCNC4)CC2)O1 [Example 20, 5-[(2R,6S)-2-methyl-6-[[4-(5,6,7,8-tetrahydro-2,6-naphthyridin-3-yl)piperazin-1-yl]methyl]morpholin-4-yl]quinoline-8-carbonitrile]
IC50 [1]: 0.072 µM | inhibition at 10 min, 10 µM [2]: -5.5%

C[C@@H]1CN(c2ccc(C#N)c3ncccc23)C[C@H](CN2CCN(c3cnc4c(c3)CNCC4)CC2)O1 [Example 21, 5-[(2R,6S)-2-methyl-6-[[4-(5,6,7,8-tetrahydro-1,6-naphthyridin-3-yl)piperazin-1-yl]methyl]morpholin-4-yl]quinoline-8-carbonitrile]
IC50 [1]: 0.052 µM | inhibition at 10 min, 10 µM [2]: -4.5%

C[C@@H]1CN(c2ccc(C#N)c3ncccc23)C[C@H](CN2CCN(c3ccc4c(c3)C(O)CNC4)CC2)O1 (stereo partly drawn) [Example 22, 5-[(2S,6R)-2-[[4-(4-hydroxy-1,2,3,4-tetrahydroisoquinolin-6-yl)piperazin-1-yl]methyl]-6-methyl-morpholin-4-yl]quinoline-8-carbonitrile]
IC50 [1]: 0.045 µM | inhibition at 10 min, 10 µM [2]: 6%

C[C@@H]1CN(c2ccc(C#N)c3ncccc23)C[C@H](CN2CCN(c3cnc4c(c3)CCNC4)CC2)O1 [Example 23, 5-[(2R,6S)-2-methyl-6-[[4-(5,6,7,8-tetrahydro-1,7-naphthyridin-3-yl)piperazin-1-yl]methyl]morpholin-4-yl]quinoline-8-carbonitrile]
IC50 [1]: 0.059 µM | inhibition at 10 min, 10 µM [2]: 3.5%

C[C@@H]1CN(c2ccc(C#N)c3ncccc23)C[C@H](CN2CCN(c3ccc4c(c3)CCNC4CO)CC2)O1 (stereo partly drawn) [Example 24, 5-[(2S,6R)-2-[[4-[1-(hydroxymethyl)-1,2,3,4-tetrahydroisoquinolin-6-yl]piperazin-1-yl]methyl]-6-methyl-morpholin-4-yl]quinoline-8-carbonitrile]
IC50 [1]: 0.046 µM | inhibition at 10 min, 10 µM [2]: -9.5%

C[C@@H]1CN(c2ccc(C#N)c3nccnc23)C[C@H](CN2CCN(c3cnc4c(c3)CNC4)CC2)O1 [Example 25, 8-[(2S,6R)-2-[[4-(6,7-dihydro-5H-pyrrolo[3,4-b]pyridin-3-yl)piperazin-1-yl]methyl]-6-methyl-morpholin-4-yl] quinoxaline-5-carbonitrile]
IC50 [1]: 0.09 µM | inhibition at 10 min, 10 µM [2]: -8%

C[C@@H]1CN(c2ccc(C#N)c3ncccc23)C[C@H](CN2CCN(c3ncc4c(n3)CCNC4)CC2)O1 [Example 29, 5-[(2R,6S)-2-methyl-6-[[4-(5,6,7,8-tetrahydropyrido[4,3-d]pyrimidin-2-yl)piperazin-1-yl]methyl]morpholin-4-yl]quinoline-8-carbonitrile]
IC50 [1]: 0.122 µM | inhibition at 10 min, 10 µM [2]: 16.5%

C[C@@H]1CN(c2ccc(C#N)c3ncccc23)C[C@H](CN2CCN(c3ccc4c(n3)CNC4)CC2)O1 [Example 30, 5-[(2S,6R)-2-[[4-(6,7-dihydro-5H-pyrrolo[3,4-b]pyridin-2-yl)piperazin-1-yl]methyl]-6-methyl-morpholin-4-yl] quinoline-8-carbonitrile]
IC50 [1]: 0.041 µM | inhibition at 10 min, 10 µM [2]: 17.5%
